Results on one compound are retold here after patent US20170247446A1, “TARGETING K-RAS-MEDIATED SIGNALING PATHWAYS AND MALIGNANCY BY ANTI-hLIF ANTIBODIES” (The Regents of the University of California, priority 2014, published 2017).

This test deals with PANC2.03 subcutaneous tumors. Nature of the test: Drug sensitization assay, PANC2.03 subcutaneous tumors in nude mice. It counts as in vivo. How it is done: FIG. 5. […] (B) 50,000 cells of PANC2.03 were subcutaneously injected into nude mice for the tumor initiation assay. The anti-LIF AB (clone D25.1.4) was given before the tumor inoculation at 10 mg/kg. The treatment was given three times a week. […] (C) In drug sensitization assay, 0.2×10^6 cells of PANC2.03 cells were first subcutaneously injected into nude mice. […] The mice were randomly separated into 4 different groups: control, Ab only, gemcitabine only, and combination. […] (D) Tumor volume changing curve in the PANC2.03 subcutaneous tumors with the treatment model of (C). […] Tumor proliferation rate=(Tumor vol on the later day−Tumor vol on the initial day)/Tumor vol on the initial day*100. […] The response to gemcitabine was analyzed in pancreatic cancer cells. […] The effects of LIF-neutralizing antibody were also tested in mouse models. […] In a drug sensitization assay, PANC2.03 cells were subcutaneously injected into nude mice to form tumors, then the mice were treated with anti-LIF antibody, gemcitabine, or a combination of anti-LIF antibody and gemcitabine.

In the case of `Nc1ccn([C@@H]2O[C@H](CO)[C@@H](O)C2(F)F)c(=O)n1` [gemcitabine], under “0.2×10^6 PANC2.03 cells s.c., tumors formed within 14 days post-inoculation, then treatment, FIG. 5C”, the “complete regressions of tumors” value is “did not lead to the tumor regressions”. Besides, the tumor proliferation rate entry ((Tumor vol on the later day−Tumor vol on the initial day)/Tumor vol on the initial day*100, FIG. 5E) is “still had a positive growth rate”. The “fold change on tumor volumes” value (FIG. 5F) is “still had a positive growth rate”.
